Results reported in US20230125667A1, “NOVEL TDZD ANALOGS AS AGENTS THAT DELAY, PREVENT, OR REVERSE AGE-ASSOCIATED DISEASES AND AS ANTI-CANCER AND ANTILEUKEMIC AGENTS” (United States Government as represented by the Department …, priority 2020, published 2023).
Entries after “also recorded” stand apart in the source; their conditions may differ.

How the values were obtained:
GSK3β = target: T1, GSK3β (Homo sapiens, UniProt P49841); assay: GSK3β activity (kinase) assay in vitro; type: biochemical; details: dose-response curves (FIG. 21)
T1 construct: purchased BPS Bioscience
T1 sequence (P49841 whole entry): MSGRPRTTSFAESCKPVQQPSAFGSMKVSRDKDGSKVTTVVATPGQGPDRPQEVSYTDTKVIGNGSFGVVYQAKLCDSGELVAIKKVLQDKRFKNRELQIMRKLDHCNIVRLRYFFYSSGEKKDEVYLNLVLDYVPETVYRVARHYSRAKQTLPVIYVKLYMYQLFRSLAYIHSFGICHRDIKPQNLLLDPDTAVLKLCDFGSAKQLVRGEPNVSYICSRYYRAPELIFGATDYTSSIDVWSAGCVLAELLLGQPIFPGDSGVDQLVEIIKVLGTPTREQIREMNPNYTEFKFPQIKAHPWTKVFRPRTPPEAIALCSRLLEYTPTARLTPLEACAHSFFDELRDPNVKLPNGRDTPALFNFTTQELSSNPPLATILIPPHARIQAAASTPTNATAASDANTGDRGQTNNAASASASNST
Method: The GSK3β activity assay kit (BPS Bioscience) was used, with modification of the manufacturer's protocol. The assay was done in three replicates at three doses (0.01, 0.1, and 1 μM) of each inhibitor (TDZD8, PNR962) in a 96-well plate, using 1% DMSO (final solvent concentration) as the drug-free control. The kinase assay reaction was incubated for 45 minutes at 30′C and Kinase-Glo Max Assay (Promega) was then added and incubated for 15 minutes at room temperature. A negative control contained all the reagents except the test inhibitors and GSK3β enzyme and positive control contained all reagents except the test inhibitor. SpectraMax M3 (Molecular Devices, LLC) was used as a microplate reader. The luminescence negative control reading was used as 0% activity, positive control reading was used as 100% activity and kinase assay was based on the fact that all the reading in wells with test inhibitor, should lie between these values of negative control and positive controls. GSK3β inhibitions were calculated after subtracting negative control values from all the wells and graphs were generated using GraphPad Prism.
The best predicted inhibitors were synthesized, and screened in both human neuronal cells, and in C. elegans models of neurodegeneration. These compounds were also tested for their ability to inhibit GSK3β activity in vitro.

SH-SY5Y-APPSw cells = assay: Thioflavin-T staining of amyloid-like aggregates in SH-SY5Y-APPSw cells; type: cell-based, human
Method: (§1) Several TDZD-conjugated drugs (putative GSK-3 inhibitors) were evaluated for their ability to reduce accumulation of protein aggregates, and for protection against aggregation-associated end-points in the following model systems: (i.) SH-SY5Y-APPSw, a neuroblastoma cell line expressing the Swedish mutation of Amyloid Precursor Protein (APPSw), and thus predisposed to form β-amyloid deposits; (ii.) C. elegans strain CL4176, a model of Alzheimer-like amyloidopathy that can be induced to express human Aβ1-42 in muscle, or may express it at a lower level without induction; (iii.) C. elegans strain AM141, a model of Huntington-like polyglutamine aggregation that constitutively expresses Q40::YFP (a tract of 40 glutamines fused in-frame to yellow fluorescent protein) in muscle cells and forms aggregates progressively with adult aging. The TDZD analog PNR-962 (a putative GSK-3 inhibitor) and other related compounds (not shown) were protective in all aggregation assays.
First, the effects of TDZD analogues were tested on the human neuroblastoma cell line SH-SY5Y-APPSw, a model of Alzheimer-like amyloid aggregation expressing the “Sw” mutant form of Amyloid Precursor Protein, APP. These drugs all produced significant reductions in amyloid-like aggregates, by 30-50% as quantified by thioflavin-T staining intensity (data for PNR-962 are shown in FIG. 4). Modified TDZD-8 analogues PNR-962 and BSK-179 are more anti-aggregative than TDZD-8, lowering total amyloid-staining intensity by a further 14% (data not shown).
Following previously described experimental procedures (Liu, et al. (2005). S100B-induced microglial and neuronal IL-1 expression is mediated by cell type-specific transcription factors. Journal of Neurochemistry. 92(3): 546-553), SH-SY5Y-APPSw neuronal cells expressing an aggregation-prone double mutant of amyloid precursor protein (APPSw) were cultured in DMEM plus 10% (v/v) fetal bovine serum (FBS) at 37° C. Cells were suspended in trypsin/EDTA and rinsed in PBS prior to re-plating or harvesting. […] Human neuroblastoma cells were treated with PNR962, either simultaneous with sAPPα or beginning 1 h prior to sAPPα addition (pre-treatment) in order to ascertain the protective benefits of PNR962 on protein aggregation in human neuroblastoma cell lines. A similar experimental procedure was followed to examine the effect of treatment with these analogs on non-neuronal human cells, exposing human embryonic kidney cells (HEK) that express tau-like aggregates (found in AD-associated diseases) to 0.001, 0.01, and 1-μM doses of TDZD-8 and its analogues.
To observe the protective effects of the novel TDZD analogs on protein aggregation in SY5Y-APPSw cells, using DMEM medium containing 10% fetal calf serum in […], cells were cultured at 37′C for 26 hrs allowing cells to approximately double in number. After 48 h of cell incubation in the presence of specified concentrations of drug or vehicle, cells were fixed 15 min in formaldehyde (4% v/v), washed, and stained 20 min at ˜22° C. in a dark container with 0.1% w/v Thioflavin T mixed with DAPI (1 μg/ml; Life Technologies, Grand Island, N.Y., USA). […] The intensity of aggregate/thioflavin-T fluorescence per field was quantified via an Image J plug-in developed in-house, and normalized to the number of DAPI^+ nuclei counted per field, to obtain an average intensity of aggregates per cell for each treatment.

C. elegans strain AM141 = assay: Q40::YFP aggregates in C. elegans strain AM141; type: in vivo
Method: as §1
Fresh agar plates supporting bacterial lawns, which serve as food for C. elegans, were prepared at least 1 day ahead of use. C. elegans AM141 (forming Q40::YFP aggregates in muscle, progressively in early adulthood) were placed on these 100-mm plates. Day-4 adult worms were lysed with alkaline hypochlorite solution to obtain eggs from worms, a procedure that permits synchronization of worms in a cohort. Eggs were placed on plates spotted with different concentrations of TDZD analogues after allowing the compounds to be evenly distributed on the plates (˜1 hour after adding drugs to plates). Vehicle-only (DMSO) controls are included in each experiment, as a baseline for drug effects in experimental groups. Young-adult AM141 (day-3 adults) were transferred on alternate days onto fresh plates that contained the same doses of compounds, with fresh E. coli to prevent starvation of worms. Equal samples (n=25) were randomly picked from experimental groups and control group for microscopic imaging. Using an in-house plugin for ImageJ software (NIH), several images of AM141 were processed for aggregate count per worm. The fluorescence intensity of each aggregate (indicating the size/content of protein aggregates) was also measured. Each drug treatment was repeated multiple times to validate the results.

O=c1sn(CCI)c(=O)n1Cc1ccccc1 [PNR-962]
ability to inhibit GSK3β activity in vitro (GSK3β): markedly superior to TDZD8
protein aggregation (SH-SY5Y-APPSw cells; 5 μM (FIG. 4)): reduces protein aggregation
further lowering of total amyloid-staining intensity relative to TDZD-8 (SH-SY5Y-APPSw cells; data not shown): 14%
number of Q40::YFP aggregates (C. elegans strain AM141; 5-μM, 3 days of exposure (FIG. 6)): reduces huntingtin-like aggregates; also recorded: reduced the number of aggregates significantly
number of aggregation foci (C. elegans strain AM141; C. elegans model of Huntington's Disease (FIG. 7)): decreases
aggregate intensity (content of Q40-YFP) (C. elegans strain AM141; not shown): reduced aggregate intensity
